Drawing on patent US11180482B2, “Anilinopyrimidines as haematopoietic progenitor kinase 1 (HPK1) inhibitors” (Ariad Pharmaceuticals, Inc., priority 2016, dated 2021), this text covers IC50 for 20 molecules.

One may read the IC50 as the concentration needed to halve the response being measured.

Sequence of Wild Type HPK1 (MAP4K1) Kinase (Q92918 whole entry, species assumed): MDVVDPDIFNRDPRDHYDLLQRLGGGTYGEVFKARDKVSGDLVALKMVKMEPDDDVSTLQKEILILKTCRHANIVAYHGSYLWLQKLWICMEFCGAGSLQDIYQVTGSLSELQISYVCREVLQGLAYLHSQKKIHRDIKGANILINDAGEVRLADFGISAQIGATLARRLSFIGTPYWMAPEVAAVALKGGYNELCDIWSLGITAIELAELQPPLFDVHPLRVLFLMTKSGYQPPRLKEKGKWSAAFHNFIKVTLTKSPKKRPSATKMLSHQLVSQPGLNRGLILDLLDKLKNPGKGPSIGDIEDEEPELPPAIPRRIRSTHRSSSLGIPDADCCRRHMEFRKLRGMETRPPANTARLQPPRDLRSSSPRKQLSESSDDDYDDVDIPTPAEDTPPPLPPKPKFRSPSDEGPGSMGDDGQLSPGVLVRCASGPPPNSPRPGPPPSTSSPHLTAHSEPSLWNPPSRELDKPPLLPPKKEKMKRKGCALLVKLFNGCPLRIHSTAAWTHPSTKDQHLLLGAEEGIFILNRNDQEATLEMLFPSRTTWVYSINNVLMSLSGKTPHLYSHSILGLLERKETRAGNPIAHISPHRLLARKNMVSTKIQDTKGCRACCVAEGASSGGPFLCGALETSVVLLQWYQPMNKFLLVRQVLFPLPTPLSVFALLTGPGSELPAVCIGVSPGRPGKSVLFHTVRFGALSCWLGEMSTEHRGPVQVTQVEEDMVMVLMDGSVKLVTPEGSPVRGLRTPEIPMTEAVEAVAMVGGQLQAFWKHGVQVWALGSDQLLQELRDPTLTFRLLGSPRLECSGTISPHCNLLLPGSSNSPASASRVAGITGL

In this experiment the target is Wild Type HPK1 (MAP4K1) Kinase (Homo sapiens (Human), UniProt Q92918). Briefly: HPK1 Assay (Caliper EZ reader, fluorescein tagged peptide substrate). Format: biochemical. The settings on record: ATP 500 micromolar, kinase 6 nM, pH 7.4. As to the method:
The enzymatic activity of Wild Type HPK1 (MAP4K1) Kinase was measured in the presence or absence of an inhibitor compound of the present disclosure by preparation of a reaction mixture containing a fluorescein tagged peptide (2 micromolar final concentration), ATP (Adenosine Triphosphate, 500 micromolar final concentration) and Wild Type kinase (6 nM final concentration) in a buffer system comprising 50 mM HEPES (Buffer), 3 mM MgCl2, 5% w/v Trehalose, 0.01% Brij 35 (Detergent), 0.1% Pluronic F127 (Surfactant), 0.1 mM EDTA (Ethylenediaminetetraacetic acid), 0.1 mM EGTA (ethylene glycol-bis(β-aminoethyl ether)-N,N,N′,N′-tetraacetic acid) and 1 mM DTT (Dithiothreitol) and at a pH of 7.4. The reactions were quenched by the addition of EDTA to a final concentration of 25 mM. A Caliper EZ reader was used to measure the extent of substrate to product conversion.
The peptide substrate used in the HPK1 assay was designed based on the amino acid sequence surrounding serine residue 376 of SLP76-Lymphocyte cytosolic protein 2 (a known intracellular substrate of HPK1). This sequence SSFPQSAsLPPYFSQ was modified as follows for use in Caliper assays of HPK1: the serine residues on either side of serine 376 were replaced with alanine, three lysine residues were added at the […] and a fluorescein tag (FAM) was attached to the […] to produce the sequence, FAM-FPQAAsLPPYFAKKK.
For the molecule `COc1cc2c(cc1Nc1ncc(Cl)c(Nc3ccccc3P(C)(C)=O)n1)C(C)N(C)CC2` (centres unmarked) [Example I-29, (2-((5-chloro-2-((6-methoxy-1,2-dimethyl-1,2,3,4-tetrahydroisoquinolin-7-yl)amino)pyrimidin-4-yl)amino)phenyl)dimethylphosphine oxide], the 50% inhibitory concentration (IC50) was < 5 nM.
In the case of `COc1cc2c(cc1Nc1ncc(Cl)c(Nc3ccccc3P(C)(C)=O)n1)C(=O)NCC2` [Example I-33, 7-((5-chloro-4-((2-(dimethylphosphoryl)phenyl)amino)pyrimidin-2-yl)amino)-6-methoxy-3,4-dihydroisoquinolin-1(2H)-one], the IC50 was in the range of 100 to 10000 nM.
With `COc1cc2c(cc1Nc1ncc(Cl)c(Nc3ccccc3P(C)(C)=O)n1)C(=O)N(C)CCC2` [Example I-34, 8-((5-chloro-4-((2-(dimethylphosphoryl)phenyl)amino)pyrimidin-2-yl)amino)-7-methoxy-2-methyl-2,3,4,5-tetrahydro-1H-benzo[c]azepin-1-one], the IC50 was in the range of 100 to 10000 nM.
In the case of `COc1cc2c(cc1Nc1ncc(Cl)c(Nc3ccccc3P(C)(C)=O)n1)CN(C)CCC2` [Example I-35, (2-((5-chloro-2-((7-methoxy-2-methyl-2,3,4,5-tetrahydro-1H-benzo[c]azepin-8-yl)amino)pyrimidin-4-yl)amino)phenyl)dimethylphosphine oxide], the concentration for half-maximal inhibition (IC50) was 100 to 10000 nM.
The result for `CCOc1cc2c(cc1Nc1ncc(Cl)c(Nc3ccccc3P(C)(C)=O)n1)CN(C)CC2` [Example I-36, (2-((5-chloro-2-((6-ethoxy-2-methyl-1,2,3,4-tetrahydroisoquinolin-7-yl)amino)pyrimidin-4-yl)amino)phenyl)dimethylphosphine oxide] reads 10 to 100 nM; that for `CP(C)(=O)c1ccccc1Nc1nc(Nc2cc3c(cc2C(F)(F)F)CCNC3)ncc1Cl` [Example I-37, (2-((5-Chloro-2-((6-(trifluoromethyl)-1,2,3,4-tetrahydroisoquinolin-7-yl)amino)pyrimidin-4-yl)amino)phenyl)dimethylphosphine oxide], 10 to 100 nM; that for `COc1cc2c(cc1Nc1ncc(Cl)c(Nc3ccccc3P(C)(C)=O)n1)CCNC2` [Example I-38, (2-((5-chloro-2-((7-methoxy-1,2,3,4-tetrahydroisoquinolin-6-yl)amino)pyrimidin-4-yl)amino)phenyl)dimethylphosphine oxide], < 5 nM.
Regarding `[2H]C1([2H])NCCc2cc(OC)c(Nc3ncc(Cl)c(Nc4ccccc4P(C)(C)=O)n3)cc21` [Example I-39, (2-((5-chloro-2-((6-methoxy-1,2,3,4-tetrahydroisoquinolin-7-yl-1,1-d2)amino)pyrimidin-4-yl)amino)phenyl)dimethyl-phosphine oxide], the IC50 was < 5 nM.
The value for `COc1cc2c(cc1Nc1ncc(Cl)c(Nc3ccccc3P(C)(C)=O)n1)CNCC2(C)C` [Example I-40, (2-((5-chloro-2-((6-methoxy-4,4-dimethyl-1,2,3,4-tetrahydroisoquinolin-7-yl)amino)pyrimidin-4-yl)amino)phenyl)dimethylphosphine oxide] was < 5 nM; that for `COc1cc2c(cc1Nc1ncc(Cl)c(Nc3ccccc3P(C)(C)=O)n1)CNCC2` [Example I-41, (2-((5-chloro-2-((6-methoxy-1,2,3,4-tetrahydroisoquinolin-7-yl)amino)pyrimidin-4-yl)amino)phenyl)dimethylphosphine oxide] was < 5 nM.
The result for `COc1cc2c(cc1Nc1ncc(Cl)c(Nc3ccccc3P(C)(C)=O)n1)CN(C1COC1)CC2` [Example I-42, (2-((5-Chloro-2-((6-methoxy-2-(oxetan-3-yl)-1,2,3,4-tetrahydroisoquinolin-7-yl)amino)pyrimidin-4-yl)amino)phenyl)dimethylphosphine oxide] reads 10 to 100 nM.
For `[2H]C1([2H])c2cc(Nc3ncc(Cl)c(Nc4ccccc4P(C)(C)=O)n3)c(OC)cc2CCN1C(C)C` [Example I-43, (2-((5-chloro-2-((2-isopropyl-6-methoxy-1,2,3,4-tetrahydroiso-quinolin-7-yl-1,1-d2)amino)pyrimidin-4-yl)amino)phenyl)-dimethylphosphine oxide], the IC50 is < 5 nM.
The value for `COc1cc2c(cc1Nc1ncc(Cl)c(Nc3ccccc3P(C)(C)=O)n1)CN(C)CC2(C)C` [Example I-44, (2-((5-chloro-2-((6-methoxy-2,4,4-trimethyl-1,2,3,4-tetrahydroisoquinolin-7-yl)amino)pyrimidin-4-yl)amino)phenyl)-dimethylphosphine oxide] was 5 to 10 nM.
`CN1CCc2cc(C(F)(F)F)c(Nc3ncc(Cl)c(Nc4ccccc4P(C)(C)=O)n3)cc2C1` [Example I-45, (2-((5-chloro-2-((2-methyl-6-(trifluoromethyl)-1,2,3,4-tetrahydroiso-quinolin-7-yl)amino)-pyrimidin-4-yl)-amino)phenyl)dimethylphosphine oxide] returned an IC50 of 100 to 10000 nM.
As for `C=Cc1cnc(Nc2cc3c(cc2OC)CCN(C)C3)nc1Nc1ccccc1P(C)(C)=O` [Example I-46, (2-((2-((6-Methoxy-2-methyl-1,2,3,4-tetrahydroisoquinolin-7-yl)amino)-5-vinylpyrimidin-4-yl)amino)phenyl)dimethylphosphine oxide], the half-maximal inhibitory concentration (IC50) is < 5 nM.
`COc1cc2c(cc1Nc1ncc(-c3cnn(C)c3)c(Nc3ccccc3P(C)(C)=O)n1)CN(C)CC2` [Example I-47, (2-((2-((6-methoxy-2-methyl-1,2,3,4-tetrahydroisoquinolin-7-yl)amino)-5-(1-methyl-1H-pyrazol-4-yl)pyrimidin-4-yl)amino)phenyl)dimethylphosphine oxide] yielded an IC50 of 100 to 10000 nM.
The molecule `CCc1cnc(Nc2cc3c(cc2OC)CCN(C)C3)nc1Nc1ccccc1P(C)(C)=O` [Example I-48, (2-((5-Ethyl-2-((6-methoxy-2-methyl-1,2,3,4-tetrahydroisoquinolin-7-yl)amino)pyrimidin-4-yl)amino)phenyl)dimethylphosphine oxide] registered an IC50 of 5 to 10 nM.
The value for `COc1cc2c(cc1Nc1ncc(Cl)c(Nc3ccccc3S(=O)(=O)C(C)C)n1)CN(C)CC2` [II-1, 5-chloro-N^4-(2-(isopropylsulfonyl)phenyl)-N^2-(6-methoxy-2-methyl-1,2,3,4-tetrahydroisoquinolin-7-yl)pyrimidine-2,4-diamine] was < 5 nM; that for `COc1cc2c(cc1Nc1ncc(Cl)c(Nc3ccccc3S(=O)(=O)N(C)C)n1)CN(C)CC2` [II-2, 2-((5-chloro-2-((6-methoxy-2-methyl-1,2,3,4-tetrahydroisoquinolin-7-yl)amino)pyrimidin-4-yl)amino) N,N-dimethylbenzenesulfonamide] was < 5 nM; that for `CNC(=O)c1ccccc1Nc1nc(Nc2cc3c(cc2OC)CCN(C)C3)ncc1Cl` [II-3, 2-((5-chloro-2-((6-methoxy-2-methyl-1,2,3,4-tetrahydroisoquinolin-7-yl)amino)pyrimidin-4-yl)amino)-N-methylbenzamide] was 5 to 10 nM.
